According to US6844466B2, “Alkyl urea retinoid agonists” (Syntex (U.S.A.) LLC, priority 2001, dated 2005):
“And” between values parts separate entries of the source, which are not always exact repeats. Equal values may be shown once.

What was measured:
[1] = tested on: retinoic acid receptor (α, β and γ); assay: Transactivation of retinoic acid receptors; format: cell-based; conditions: compared to prior art compounds 39 and 40
From the text: Transactivation, which is the ability of a retinoid to activate gene transcription when gene transcription is initiated by the binding of a ligand to the particular retinoic acid receptor being tested, may be determined by using methods described in the art (Apfel et al., Proc. Natl. Acad. Sci., 1992, 89, 7129; Bernard et al., Biochem. And Biophys. Res. Comm., 1992, 186, 977 which is herein incorporated by reference).

[2] = Effect of RAR agonists on plasma triglyceride levels; format: in vivo, male, Wistar Han rats; conditions: rat, oral
From the text: Sixty male, Wistar Han rats (Charles Rivers Laboratories) were used in this experiment. The received weight of the rats varied between 200-250 gm. The compounds used in this study were formulated in Miglyol 812, Batch 000719, Product #6330 (Condea) with 0.01% BHA and 0.01% BHT. Three RAR agonists, illustrated below, were compared with regards to their effects on triglyceride levels. Compounds 39 and 40 are prior art compounds (see, Hashimoto, Yuichi; Kagechika, Hiroyuki; Kawachi, Emiko; Fukasawa, Hiroshi; Saito, Go; Shudo, Koichi. “Evaluation of differentiation-inducing activity of retinoids on human leukemia cell lines HL-60 and NB4” Biol. Pharm. Bull. (1996), 19(10), 1322-1328; and Takagi, Kanji; Suganuma, Masami; Kagechika, Hiroyuki; Shudo, Koichi; Ninomiya, Mitsuo; Muto, Yasutoshi; Fujiki, Hirota. “Inhibition of ornithine decarboxylase induction by retinobenzoic acids in relation to their binding affinities to cellular retinoid-binding proteins” J. Cancer Res. Clin. Oncol. (1988), 114(3), 221-4, while compound 27 is a compound prepared in Example 7, herein.
Animals were dosed with compounds 27, 39 and 40 or vehicle for two weeks (one 1.0 mL dose a day, total of 10 doses) by oral administration. Doses were 0.3 mg/kg, 1 mg/kg and 3 mg/kg. Animals were weighed twice a week for monitoring gross toxicity (% weight change and mucutaneous).
Animals were fasted for at least 4 hours before terminal blood collection. At the end of the experiment the animals were placed under deep anesthesia using pentobarbital ip (30-40 mg). Five to six ml of blood was collected via cardiac puncture for blood chemistry (Quality Clinical Lab, Mountain View, Calif.) and PK analysis (terminal). Animals were euthanized by exsanguination from the abdominal aorta or cervical dislocation. Plasma was collected and stored at −20
Quantitation of triglycerides contained in rat plasma may be performed using established procedures. […] Hydrogen peroxide may be quantitated […] in a Hitachi 911 Chemistry Analyzer. […]

[3] = tested on: rat model of elastase-induced emphysema; assay: Alveolar repair in the rat model of elastase-induced emphysema; format: in vivo, male Sprague Dawley rats; conditions: oral once per day, lower dosage levels (0.01 or 0.001 mg/kg), p≦0.05, FIG. 1
From the text: Compounds of the invention may be evaluated for their effects on alveolar repair in the rat model of elastase-induced emphysema (Massaro et al., Nature, 1997, Vol. 3, No. 6: 675; Massaro et al., U.S. Pat. No. 5,998,486). Preferably, animals are divided into treatment groups of approximately eight. Lung inflammation and alveolar damage may be induced in male Sprague Dawley rats by a single instillation of about 2 U/gram body mass of pancreatic elastase (porcine derived, Calbiochem).
Animals may be treated with a compound of the invention formulated Miglyol at convenient oral dosage ranges (preferably, between about 10.0 mg/kg and 0.0001 mg/kg) and will be dosed orally once per day starting 21 days post injury. Control groups are challenged with elastase and 21 days later are treated with vehicle (Miglyol) for 14 days. Animals were sacrificed 24 hours after the last dose by exsanguination under deep anesthesia. Blood was collected at time of exsanguination for analysis.
The lungs are inflated with 10% neutral buffered formalin by intratracheal instillation at a constant rate (1 ml/gram body mass/min). […] The mean value/treatment group may be determined by summing the average area/rat for all eight rats/treatment groups and repair of elastase damage expressed as percentage of repair relative to the elastase+vehicle treated group from the following calculation: […]

| SMILES | melting point | selectivity of transactivation among RAR α, β and γ [1] | further results |
| --- | --- | --- | --- |
| CCCCCCN(C(=O)Nc1ccc(C(=O)O)cc1)c1ccc2c(c1)C(C)(C)CCC2(C)C [Compound 13, 4-[3-hexyl-3-(5,5,8,8-tetramethyl-5,6,7,8-tetrahydro-naphthalen-2-yl)-ureido]-benzoic acid] | 176 to 177 °C |  |  |
| CCCCCCCCN(C(=O)Nc1ccc(C(=O)O)cc1)c1ccc2c(c1)C(C)(C)CCC2(C)C [Compound 25, 4-[3-octyl-3-(5,5,8,8-tetramethyl-5,6,7,8-tetrahydro-naphthalen-2-yl)-ureido]-benzoic acid] | 166 to 167 °C and 165.8 to 167.2 °C |  |  |
| CCCCCN(C(=O)Nc1ccc(C(=O)O)cc1)c1ccc2c(c1)C(C)(C)CCC2(C)C [Compound 27, 4-[3-pentyl-3-(5,5,8,8-tetramethyl-5,6,7,8-tetrahydro-naphthalen-2-yl)-ureido]-benzoic acid] |  | unexpectedly selective at activating transcription activity through the gamma receptor | triglyceride levels expressed as a percentage relative to vehicle control (100%) ([2]; two weeks (10 doses), at the higher dose, FIG. 2): < 100%; elevation of triglyceride levels relative to vehicle control (in words) ([2]; two weeks, 0.3, 1 and 3 mg/kg): did not significantly elevate triglycerides levels; alveolar repair [3]: significant |
| CC1(C)CCC(C)(C)c2cc(NC(=O)Nc3ccc(C(=O)O)cc3)ccc21 [Compound 39, reference compound] |  | pan-agonists |  |
| CN(C(=O)Nc1ccc(C(=O)O)cc1)c1ccc2c(c1)C(C)(C)CCC2(C)C [Compound 40, reference compound] |  | pan-agonists | dose dependence of triglyceride levels ([2]; two weeks, 0.3, 1 and 3 mg/kg): triglyceride levels increasing with increasing dosage |
| CCCN(C(=O)Nc1ccc(C(=O)O)cc1)c1ccc2c(c1)C(C)(C)CCC2(C)C [Compound 55] | 175 to 186 °C | unexpectedly selective at activating transcription activity through the gamma receptor |  |
| CCCCCN(C(=O)Nc1ccc(C(=O)O)cc1F)c1ccc2c(c1)C(C)(C)CCC2(C)C [Compound 57, 3-fluoro-4-[3-pentyl-3-(5,5,8,8-tetramethyl-5,6,7,8-tetrahydro-naphthalen-2-yl)-ureido]-benzoic acid] | 150.9 to 157.4 °C |  |  |
